# Assay results as given in patent publication US7964595B2, “Thiophenyl prostaglandin derivatives for treating glaucoma and ocular hypertension” (Allergan, Inc., priority 2008, dated 2011).
# Tested on: lashes and adjacent hairs of patients
# Experiment: Clinical observation of eyelash/hair growth in glaucoma patients treated in one eye
# Format: in vivo
# Details: glaucoma patients treated in one eye only
# From the text: In the course of treating patients having glaucoma, treatment may only be appropriate in one eye. […] The lash appearance on the lids of the treated eyes would have appeared quite attractive if it represented a bilateral phenomenon. As a result of its asymmetric nature, the long lashes on one side could be construed as disturbing from a cosmetic standpoint. A systemic examination was preformed as a result of the asymmetric phenomenon. It soon became apparent that this altered appearance was not an isolated finding. […] Definite differences could be identified to varying degrees in the lashes and adjacent hairs of all patients who were taking the drug on a unilateral basis for longer than 6 months.
# The changes in the lashes were apparent on gross inspection in several patients once attention was focused on the issue. In those with light colored hair and lashes, the differences were only seen easily with the aid of the high magnification and lighting capabilities of the slit lamp biomicroscope. In the course of glaucoma follow-up examination, attention is generally immediately focused on the eye itself. As a result of the high power magnification needed only one eye is seen at a time and the eye is seen at a high enough power that the lashes are not in focus. […]
smiles,measurement,value
CCNC(=O)CCC/C=C\C[C@@H]1[C@@H](/C=C/[C@@H](O)CCc2ccccc2)[C@H](O)C[C@@H]1O [bimatoprost],lash appearance in treated eye versus non-treated eye,"longer, thicker, and fuller"
